# Read-outs that look alike come from different tables or passages of the source.
# Columns and labels:
# [1] = test system: human melanoma (Sk-mel-2) cell line; experiment: Cell motility by scratch test; assay type: cell-based; details: 10 μg/mL, 36 h, serum-free DMEM; nontreated cells 69.5 ± 17.2
# Method: To assess the potential ability of spiro-fused [3-azabicyclo[3.1.0]hexane]oxindoles 4, 11, 12, 18, 24 and cyclopropa[a]pyrrolizidine-2,3′-oxindole 2 to inhibit metastasis associated with cell motility, a scratch test was performed on the human melanoma (Sk-mel-2) cell line. Different fields were analyzed by bright field, and each scratch area was photographed at 0 and 36 h for non-toxic and fast cell visualization. Nontreated Sk-mel-2 cells filled 69.5 ± 17.2, 41.5 ± 5.3, 59.7 ± 8.1, 49.3 ± 5.3, 43.0 ± 12.6, 26.1 ± 2.5 and 55.9 ± 8.6% of the scratched strip while under treatment with spiro-fused oxindole derivatives 2, 4, 11, 12, 18 and 24 cells, respectively.
# Cells were seeded at a density of 5 × 10^5 cells per dish onto petri dishes and grown to confluency. A 200 μL pipette tip was used to make scratch wounds and detached cells were removed after that by washing with phosphate-buffered saline. Culture media was replaced with serum-free DMEM in order to inhibit cell proliferation. Compounds to be screened were added at a dose of 10 μg/mL to the cultures and incubated for 36 h. Different fields were analyzed by bright field, and each scratch area was photographed at 0 and 36 h. Images were captured using an Axio Observer Z1 confocal microscope (Carl Zeiss MicroImaging GmbH, Jena, Germany). The percent of wound closure in five randomly chosen fields was calculated with ImageJ software, 1.52v.
# [2] = test system: human erythroleukemia (K562) cell line; experiment: MTS cell proliferation assay, K562; assay type: cell-based; details: for IC50: Homo sapiens, MTS; for SI (selectivity index) K562: ratio of cytotoxicity PBMC / K562, calculated at 72 h
# Method: (§1) Cancer cell lines are valuable in vitro model systems that are widely used in cancer research and drug discovery. Their use is mainly linked to their possibility to provide for experimental purposes an unlimited source of biological material. Here, the 24 and 72 h in vitro MTS assay was used to determine the antiproliferative activity of synthesized spiro-fused cyclopropa[a]pyrrolizidine-2,3′-oxindoles and [3-azabicyclo[3.1.0]hexane]-oxindoles against human erythroleukemia (K562), acute T cell leukemia (Jurkat), cervical carcinoma (HeLa), melanoma (Sk-mel-2), breast cancer adenocarcinoma (MCF-7) as well as mouse colon carcinoma (CT26) cell lines. […] The full results of these investigations are presented in the Supporting Information Figures S1–S6. […] An evaluation of the cytotoxicity of the selected compounds towards normal cells (peripheral blood mononuclear cells) was performed additionally to understand their respective relative selectivities. The selectivity index was obtained using the ratio of measured cytotoxicity between the PBMC cells and each of the cancer cell lines, and the results are presented in Table 3.
# (§2) The human erythroleukemia (K-562), cervical carcinoma (HeLa) as well as mouse colon carcinoma (CT26) cell lines were obtained from the Bank of Cell Cultures of the Institute of Cytology of the Russian Academy of Sciences; the human melanoma (Sk-mel-2) cell line was obtained from the Bank of Cell Cultures of the Institute of Cytology and Genetics, Siberian Branch of the Russian Academy of Sciences. The acute T cell leukemia (Jurkat) cell line was obtained from the Bank of Cell Cultures of the Institute of Immunology of the Russian Academy of Medical Sciences. The peripheral blood mononuclear cells (PBMC) were isolated from the blood of healthy donors. K-562, Jurkat, MCF-7, PBMC and CT26 cells were grown on RPMI medium (Hyclone, GE Healthcare Life Sciences, Logan, UT, USA) supplemented with 10% (v/v) fetal bovine serum (Hyclone, GE Healthcare Life Sciences, Logan, UT, USA) and gentamicin (Sigma-Aldrich, St. Louis, MO, USA) at 37 °C in a humidified atmosphere with 5% CO2. HeLa and Sk-mel-2 cells were cultured with the same supplements and conditions in DMEM medium (Hyclone, GE Healthcare Life Sciences, Logan, UT, USA).
# (§3) To evaluate the in vitro toxicity of the compounds synthesized, cells were seeded into 96-well plates at a density of 5 × 10^3 cells per well. On the next day, the tested compounds were added to the wells at concentrations ranging from 1 to 30 μg/mL, followed by incubation for 1 and 3 days. Cell proliferation was determined by adding 20 μL of MTS reagent (BioVision, Milpitas, CA, USA) stock solution per well. The plates were incubated for 2 h at 37 °C in a humidified, 5% CO2 atmosphere. The plates were then read at 495 nm using a plate spectrophotometer (Multiskan GO, Thermo Fisher Scientific, Waltham, MA, USA). All samples were measured in triplicate.
# [3] = test system: cervical carcinoma (HeLa) cell line; experiment: MTS cell proliferation assay, HeLa; assay type: cell-based, human; details: for IC50: Homo sapiens, HeLa, MTS; for SI (selectivity index) HeLa: ratio of cytotoxicity PBMC / HeLa, calculated at 72 h
# Method: as §1, §2, §3
# [4] = test system: acute T cell leukemia (Jurkat) cell line; experiment: MTS cell proliferation assay, Jurkat; assay type: cell-based, human; details: for IC50: Homo sapiens, Jurkat, MTS; for SI (selectivity index) Jurkat: ratio of cytotoxicity PBMC / Jurkat, calculated at 72 h
# Method: as §1, §2, §3
# [5] = test system: breast cancer adenocarcinoma (MCF-7) cell line; experiment: MTS cell proliferation assay, MCF-7; assay type: cell-based, human; details: for IC50: Homo sapiens, MTS; for SI (selectivity index) MCF-7: ratio of cytotoxicity PBMC / MCF-7, calculated at 72 h
# Method: as §1, §2, §3
# [6] = test system: melanoma (Sk-mel-2) cell line; experiment: MTS cell proliferation assay, Sk-mel-2; assay type: cell-based, human; details: for IC50: Homo sapiens, MTS; for SI (selectivity index) Sk-mel-2: ratio of cytotoxicity PBMC / Sk-mel-2, calculated at 72 h
# Method: as §1, §2, §3
# [7] = test system: mouse colon carcinoma (CT26) cell line; experiment: MTS cell proliferation assay, CT26; assay type: cell-based; details: for IC50: Mus musculus, MTS; for SI (selectivity index) CT26: ratio of cytotoxicity PBMC / CT26, calculated at 72 h
# Method: as §1, §2, §3
# [8] = test system: peripheral blood mononuclear cells (PBMC); experiment: MTS cytotoxicity towards normal cells, PBMC; assay type: cell-based; details: Homo sapiens
# Method: as §1, §2, §3
# [9] = test system: HeLa cells actin cytoskeleton; experiment: Actin cytoskeleton staining, confocal microscopy, HeLa; assay type: cell-based, human; details: 10 μg/mL, 24 h
# Method: It was found using confocal microscopy that incubation with spiro-fused [3-azabicyclo[3.1.0]hexane]oxindoles 4, 8, 17, 18, 22, 24 and cyclopropa[a]pyrrolizidine-2,3′-oxindole 2 led to significant changes in the HeLa cells’ actin cytoskeleton structure leading to the disappearance of stress fibers (granular actin was distributed diffusely in the cytoplasm in up to 38% of treated cells) and changes in the number of filopodia-like deformations (reduced from 93% in control cells to 64% after treatment). The impact on the Sk-mel-2 cells’ actin cytoskeleton structure was even greater: granular actin was distributed diffusely in the cytoplasm in up to 90% of treated cells while the number of filopodia-like deformations was reduced by up to 23%. Such changes in the cytoskeleton may indicate a change in the motor activity of cells, which may indicate a decrease in the ability of tumor cells to metastasize.
# HeLa cells were seeded at a density of 2 × 10^5 cells per dish onto a petri dish with cover slips and incubated for 24 h. After that, cells were treated with chosen compounds (10 μg/mL) for 24 h. The medium was removed and cells were fixed with 4% paraformaldehyde (Sigma-Aldrich, St. Louis, MO, USA), washed three times with PBS, and permeabilized with 0.3% Triton-X100 (Sigma-Aldrich, St. Louis, MO, USA). The cells were rinsed three times with PBS. Actin filaments (microfilaments) were stained with rhodamine–phalloidin (Invitrogen, Carlsbad, CA, USA) at 37 °C for 15 min. The samples were rinsed three times with PBS, followed by embedding in Fluoroshield medium (Sigma-Aldrich, St. Louis, MO, USA). Cells were imaged using an Axio Observer Z1 confocal microscope (Carl Zeiss MicroImaging GmbH, Jena, Germany). In each experiment, at least 30 cells were imaged. Images were analyzed by a pathologist blinded to the treatment mode used for each group using ImageJ software, 1.52v.
# K562 cells = experiment: Cell cycle analysis by flow cytometry; assay type: cell-based, human; details: 24 h; for K562 cells in SubG1 phase: control 4.5 ± 0.9; for K562 cells in G2/M phase: control 23.1 ± 1.7; for K562 cells in S phase: control 31.9 ± 1.0; for K562 cells in G0/G1 phase: control 40.5 ± 1.3
# Source text: Since growth inhibition may be a result of cell cycle arrest at a particular point, the specific antiproliferative activity of several cycloadducts was further evaluated by flow cytometry to study their impact on the progression of the cell cycle in K562 cells. The assay utilizes propidium iodide-based staining of DNA content to distinguish and measure the accumulation of cells in each cell cycle phase (SubG, G0/G1, S and G2/M).
# The distribution of K562 cells in the G0/G1-, S- and G2/M-phases of the cell cycle was obtained by quantification of DNA content using flow cytometry in DAPI-stained cells. Briefly, cells were seeded at a density of 5 × 10^4 cells per well in 24-well plates. […] After incubation with drugs, the cells were harvested by pipetting. This was followed by treatment with 0.2 mg/mL saponin (Fluka, Waltham, MA, USA) and 0.05 mg/mL DAPI (Thermo scientific, Rockford, IL, USA). After washing, the samples were analyzed using a standard flow cytometer (BD FACSCanto II, Becton Dickinson, San Jose, CA, USA). A total of 10,000 events were acquired for the samples. Data processing was performed using the BD FACSDiva 9.0 software.
# [10] = read-out: IC50 K562 24 h, K562, 24 h
# [11] = K562, 72 h, read-out: IC50 K562 72 h
# [12] = read-out: IC50 Jurkat 24 h, 24 h
# [13] = 72 h, read-out: IC50 Jurkat 72 h
# [14] = MCF7, read-out: IC50 MCF-7 24 h, MCF-7, 24 h
# [15] = MCF7, MCF-7, 72 h, read-out: IC50 MCF-7 72 h
# [16] = read-out: IC50 Sk-mel-2 24 h, Sk-mel-2, 24 h
# [17] = Sk-mel-2, 72 h, read-out: IC50 Sk-mel-2 72 h
# [18] = read-out: IC50 CT26 24 h, CT26, 24 h
# [19] = CT26, 72 h, read-out: IC50 CT26 72 h
Structure (SMILES),"IC50 [2, 10] [µM]","IC50 [2, 11] [µM]",SI (selectivity index) K562 [2],"IC50 ([3]; read-out: IC50 HeLa 24 h, 24 h) [µM]","IC50 ([3]; 72 h, read-out: IC50 HeLa 72 h) [µM]",SI (selectivity index) HeLa [3],"IC50 [4, 12] [µM]","IC50 [4, 13] [µM]",SI (selectivity index) Jurkat [4],"IC50 [5, 14] [µM]","IC50 [5, 15] [µM]",SI (selectivity index) MCF-7 [5],"IC50 [6, 16] [µM]","IC50 [6, 17] [µM]",SI (selectivity index) Sk-mel-2 [6],"IC50 [7, 18] [µM]","IC50 [7, 19] [µM]",SI (selectivity index) CT26 [7],"IC50 ([8]; 72 h, read-out: IC50 PBMC 72 h) [µM]","IC50 ([8]; read-out: IC50 PBMC 24 h, 24 h) [µM]",also measured
COC(=O)C1C2(c3ccccc3)C3CCCN3C3(C(=O)Nc4ccc(Cl)cc43)C12c1ccccc1 (centres unmarked) [Compound 12],,,,,,,,,,,,,,,,,,,,,Part of the scratched strip filled by Sk-mel-2 cells [1]: 43.0 ± 12.6%
CC(C)CC1NC2(C(=O)Nc3ccccc32)C2(c3ccccc3)C(c3ccccc3)C12c1ccccc1 (centres unmarked) [Compound 22],> 40,12 ± 1,5,> 40,23 ± 2,3,21 ± 2,4 ± 1,16,> 40,> 40,1,> 40,23 ± 2,3,> 40,39 ± 3,2,64 ± 6,132 ± 16,"HeLa cells with filopodia-like deformations ([9]; control cells 93%, lowest value over the compounds): ≥ 64%; HeLa cells with granular actin distributed diffusely in the cytoplasm (stress fibers disappeared) ([9]; maximum over the compounds): up to 38%"
CC[C@H](C)C1NC2(C(=O)Nc3ccccc32)C2(c3ccccc3)C(c3ccccc3)C12c1ccccc1 (some centres unmarked) [Compound 23],> 40,21 ± 2,8,> 40,> 40,3,25 ± 2,12 ± 1,13,> 40,> 40,3,> 40,> 40,3,> 40,> 40,3,165 ± 16,177 ± 20,
"COc1cccc2c1C(=O)c1c(O)c3c(c(O)c1C2=O)C[C@@](O)(C(=O)CO)C[C@@H]3O[C@H]1C[C@H](N)[C@H](O)[C@H](C)O1 [Doxorubicin, reference compound]",16 ± 3,1 ± 0.4,9,4 ± 1,1 ± 0.1,9,,,,,,,,,,19 ± 3,6 ± 1,2,9 ± 1,11 ± 1,K562 cells in SubG1 phase (K562 cells; 1 μg/mL): 43.0 ± 1.0%; K562 cells in G2/M phase (K562 cells; 1 μg/mL): 2.2 ± 0.3%; K562 cells in S phase (K562 cells; 1 μg/mL): 8.8 ± 1.7%; K562 cells in G0/G1 phase (K562 cells; 1 μg/mL): 45.6 ± 0.8%; K562 cells in SubG1 phase (K562 cells; 5 μg/mL): 93.1 ± 0.7%; K562 cells in G2/M phase (K562 cells; 5 μg/mL): 0.2 ± 0.1%; K562 cells in S phase (K562 cells; 5 μg/mL): 0.8 ± 0.1%; K562 cells in G0/G1 phase (K562 cells; 5 μg/mL): 5.9 ± 0.6%

# Source: publication PMC11680018, “Study of Cytotoxicity of Spiro-Fused [3-Azabicyclo[3.1.0]hexane]oxindoles and Cyclopropa[a]pyrrolizidine-oxindoles Against Tumor Cell Lines” (Pharmaceuticals, 2024)
